Laboratory results as given in the NIST ThermoML archive (doi:10.1016/j.fluid.2008.03.012).

Conditions: 101.33 kPa, Liquid

CCOC(=O)CC(C)=O [ethyl 3-oxobutanoate]
Conditions	mass density [kg/m3]
278.15 K	1043.1
288.15 K	1034.5
298.15 K	1023.5
313.15 K	1008
328.15 K	992.1
338.15 K	981.9
348.15 K	971.4
